Laboratory results from US7517889B2, “2,6-substituted-4-monosubstitutedamino-pyrimidine as prostaglandin D2 receptor antagonists” (Aventis Pharmaceuticals, Inc., priority 2004, dated 2009).

Target: T1, DP receptor (Homo sapiens, UniProt Q13258)
T1 construct: the human cell line LS174T, which expresses the endogenous DP receptor; endogenous in cells; host or cells: LS174T human cell line
T1 sequence (Q13258 1-359): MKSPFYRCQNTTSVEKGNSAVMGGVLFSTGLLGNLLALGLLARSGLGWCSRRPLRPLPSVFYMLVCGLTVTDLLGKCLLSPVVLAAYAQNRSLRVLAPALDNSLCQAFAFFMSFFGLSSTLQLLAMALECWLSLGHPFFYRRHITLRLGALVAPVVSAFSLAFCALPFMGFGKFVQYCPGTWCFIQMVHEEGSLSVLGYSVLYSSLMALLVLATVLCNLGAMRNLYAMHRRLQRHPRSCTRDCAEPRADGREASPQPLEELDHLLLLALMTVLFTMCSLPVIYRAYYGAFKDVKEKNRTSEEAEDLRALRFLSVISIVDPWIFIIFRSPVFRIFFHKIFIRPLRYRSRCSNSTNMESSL
Experiment: SPA cAMP assay in human LS174 T cells (human DP functional assay)
Format: cell-based
Settings: inhibition of PGD2 (15 nM final) stimulated cAMP, LS174T cells expressing endogenous DP receptor
Outline: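 LS174T cells with endogenous DP receptor, 45,000/well seeded overnight, exposed to compounds at 11 points for 15 min at 37 °C in buffer containing IBMX, with PGD2 stimulation.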

SMILES | IC50 [nM]
COc1ccc(CCNc2cc(-c3ccc4[nH]cnc4c3)nc(OC)n2)cc1 [Example 14(a), [6-(1H-Benzoimidazol-5-yl)-2-methoxy-pyrimidin-4-yl]-[2-(4-methoxy-phenyl)-ethyl]-amine] | 2.7
COc1ccc(CCNc2cc(-c3ccc(CN4CCCC4)s3)nc(OC)n2)cc1 [Example 13(a), [2-(4-Methoxy-phenyl)-ethyl]-[2-methoxy-6-(5-pyrrolidin-1-ylmethyl-thiophen-2-yl)-pyrimidin-4-yl]-amine] | 44
COc1nc(NCCc2ccc(OC)c(OC)c2)cc(-c2cccc(C(=O)NCCN3CCCC3)c2)n1 [Example 25(b), 3-{6-[2-(3,4-Dimethoxy-phenyl)-ethylamino]-2-methoxy-pyrimidin-4-yl}-N-(2-pyrrolidin-1-yl-ethyl)-benzamide] | 30

Continued by falling IC50, values first:

IC50 [nM] | SMILES
13 | COc1ccc(CCNc2cc(-c3ccc4c(c3)CCO4)nc(OC)n2)cc1 [Example 10(j), [6-(2,3-Dihydro-benzofuran-5-yl)-2-methoxy-pyrimidin-4-yl]-[2-(4-methoxy-phenyl)-ethyl]-amine]
8 | COc1ccc(CCNc2cc(-c3ccncc3)nc(OC)n2)cc1 [Example 35(q), [2-(4-Methoxy-phenyl)-ethyl]-(2-methoxy-6-pyridin-4-yl-pyrimidin-4-yl)-amine]
